The values that follow come from patent US10081665B2, “Peptides and combination of peptides for use in immunotherapy against various tumors” (immatics biotechnologies GmbH, priority 2015, dated 2018).

The subject of assay [1] is advanced non-resectable HCC. Particulars: advanced non-resectable HCC patients (Chapiro et al., 2014; Llovet et al., 2008); cited from earlier work.
The next assay concerns CD8+ T cells. Nature of the assay: In vitro immunogenicity: T-cell priming with aAPCs loaded with peptide/MHC complexes and anti-CD28, pMHC multimer readout. Format: cell-based, human. To be noted: in vitro immunogenicity, HLA-A*02 restricted peptides; percentage of positive wells and donors (among evaluable). An excerpt:
In order to obtain information regarding the immunogenicity of the TUMAPs of the present invention, the inventors performed investigations using an in vitro T-cell priming assay based on repeated stimulations of CD8+ T cells with artificial antigen presenting cells (aAPCs) loaded with peptide/MHC complexes and anti-CD28 antibody.
In order to perform in vitro stimulations by artificial antigen presenting cells loaded with peptide-MHC complex (pMHC) and anti-CD28 antibody, the inventors first isolated CD8+ T cells from fresh HLA-A*02 leukapheresis products via positive selection using CD8 microbeads (Miltenyi Biotec, Bergisch-Gladbach, Germany) of healthy donors obtained from the University clinics Mannheim, Germany, after informed consent. PBMCs and isolated CD8+ lymphocytes were incubated in T-cell medium (TCM) until use consisting of RPMI-Glutamax (Invitrogen, Karlsruhe, Germany) supplemented with 10% heat inactivated human AB serum (PAN-Biotech, Aidenbach, Germany), 100 U/ml Penicillin/100 μg/ml Streptomycin (Cambrex, Cologne, Germany), 1 mM sodium pyruvate (CC Pro, Oberdorla, Germany), 20 μg/ml Gentamycin (Cambrex). 2.5 ng/ml IL-7 (PromoCell, Heidelberg, Germany) and 10 U/ml IL-2 (Novartis Pharma, Nürnberg, Germany) were also added to the TCM at this step. Generation of pMHC/anti-CD28 coated beads, T-cell stimulations and readout was performed in a highly defined in vitro system using four different pMHC molecules per stimulation condition and 8 different pMHC molecules per readout condition.
The purified co-stimulatory mouse IgG2a anti human CD28 Ab 9.3 (Jung et al., 1987) was chemically biotinylated using Sulfo-N-hydroxysuccinimidobiotin as recommended by the manufacturer (Perbio, Bonn, Germany). Beads used were 5.6 μm diameter streptavidin coated polystyrene particles (Bangs Laboratories, Illinois, USA).
pMHC used for positive and negative control stimulations were A*0201/MLA-001 (peptide […] (SEQ ID NO. 289) from modified Melan-A/MART-1) and A*0201/DDX5-001 ([…] from DDX5, SEQ ID NO. 290), respectively.
800,000 beads/200 μl were coated in 96-well plates in the presence of 4×12.5 ng different biotin-pMHC, washed and 600 ng biotin anti-CD28 were added subsequently in a volume of 200 μl. Stimulations were initiated in 96-well plates by co-incubating 1×10^6 CD8+ T cells with 2×10^5 washed coated beads in 200 μl TCM supplemented with 5 ng/ml IL-12 (PromoCell) for 3 days at 37° C. Half of the medium was then exchanged by fresh TCM supplemented with 80 U/ml IL-2 and incubating was continued for 4 days at 37° C. This stimulation cycle was performed for a total of three times. For the pMHC multimer readout using 8 different pMHC molecules per condition, a two-dimensional combinatorial coding approach was used as previously described (Andersen et al., 2012) with minor modifications encompassing coupling to 5 different fluorochromes. Finally, multimeric analyses were performed by staining the cells with Live/dead near IR dye (Invitrogen, Karlsruhe, Germany), CD8-FITC antibody clone SK1 (BD, Heidelberg, Germany) and fluorescent pMHC multimers. For analysis, a BD LSRII SORP cytometer equipped with appropriate lasers and filters was used. Peptide specific cells were calculated as percentage of total CD8+ cells. Evaluation of multimeric analysis was done using the FlowJo software (Tree Star, Oreg., USA). In vitro priming of specific multimer+CD8+ lymphocytes was detected by comparing to negative control stimulations.

A further assay addresses HLA-A*02:01 (Homo sapiens, UniProt P04439, D140Y/D185E/D98H/E176V/E277Q/G131W/G231S/I119V/I121R/I166T/I218V/L300P/L318F/N151K/N90K/P208A/P217A/Q86G/Q94H/R138H/R169H/T345S). Nature of the assay: MHC binding assay (UV-ligand exchange, beta2m ELISA). Particulars: binding to HLA-A*02:01, β2m ELISA. The method in brief: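 Peptide-MHC complexes made by UV-ligand exchange of a UV-cleavable peptide for test peptide; exchange yield measured by β2m ELISA on streptavidin-coated plates with samples diluted 100-fold, HRP anti-β2m and TMB read at 450 nm. Refolded HLA-A*02:01/MLA-001 monomers (15-500 ng/ml) served as standards.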
(ELISA stands for enzyme-linked immunosorbent assay.)

Turning to `CNC(=O)c1cc(Oc2ccc(NC(=O)Nc3ccc(Cl)c(C(F)(F)F)c3)cc2)ccn1` [Sorafenib], the increase of survival result in assay [1] is listed as “about 3 months”.
With “233 (SLFESLEYL; listed as Homo sapiens) [compound 233]”, the “Wells positive [%]” value in the assay with CD8+ T cells is “+ (<20% = +)”. The “Peptide exchange (MHC class I binding score, peptide exchange yield)” value (“Peptide exchange” below) with HLA-A*02:01 is “+++ (≥50 = +++)”.
As to “97 (KLFEKSTGL; listed as Homo sapiens) [compound 97]”, the “Wells positive [%]” value with CD8+ T cells is on record as “+ (<20% = +)”. For the same compound, the “Peptide exchange” value with HLA-A*02:01 is recorded as “+++ (≥50 = +++)”.
For “17 (GLLPSAESIKL; listed as Homo sapiens) [compound 17]”, the “Wells positive [%]” value with CD8+ T cells is given as “+ (<20% = +)”. The “Peptide exchange” value with HLA-A*02:01 is given as “++++ (≥75% = ++++)”.
With “157 (ILQDGQFLV; listed as Homo sapiens) [compound 157]”, in the assay on CD8+ T cells, the “Wells positive [%]” value is “+ (<20% = +)”. The “Peptide exchange” value with HLA-A*02:01 is “++ (≥20% = ++)”.
As to “34 (TLNTLDINL; listed as Homo sapiens) [compound 34]”, the “Wells positive [%]” value in the assay on CD8+ T cells is listed as “++++ (>=70% = ++++)”. In addition, in the assay with HLA-A*02:01, the “Peptide exchange” value is recorded as “+++ (≥50 = +++)”.
For “246 (ALAGIVTNV; listed as Homo sapiens) [compound 246]”, in that order: “+ (<20% = +)” and “+++ (≥50 = +++)”.
Regarding “254 (ALGDKFLLRV; listed as Homo sapiens) [compound 254]”, in the assay with CD8+ T cells, the “Wells positive [%]” value is listed as “+ (<20% = +)”. Also, in the assay with HLA-A*02:01, the “Peptide exchange” value was “++ (≥20% = ++)”.
Regarding “183 (ALSYILPYL; listed as Homo sapiens) [compound 183]”, the “Wells positive [%]” value in the assay with CD8+ T cells is “+++ (50%-69% = +++)”. Also, the “Peptide exchange” value in the assay with HLA-A*02:01 is reported as “+++ (≥50 = +++)”.
For “27 (GLLGKVTSV; listed as Homo sapiens) [compound 27]”, in the assay on CD8+ T cells, the “Wells positive [%]” value is given as “+ (<20% = +)”. The “Peptide exchange” value in the assay with HLA-A*02:01 is “+++ (≥50 = +++)”.
For the compound “77 (ALYGNVQQV; listed as Homo sapiens) [compound 77]”, the “Wells positive [%]” value in the assay with CD8+ T cells is reported as “+ (<20% = +)”. Besides, in the assay with HLA-A*02:01, the “Peptide exchange” value is on record as “+++ (≥50 = +++)”.
For “50 (ILLSVLHQL; listed as Homo sapiens) [compound 50]”, in that order: “+ (<20% = +)” and “+++ (≥50 = +++)”.
